Like-named read-outs stand apart in the source and are kept apart here.
Columns and labels:
hROMK1 (Kir1.1) = hROMK1 (Kir1.1) (Homo sapiens (Human), UniProt P48048); experiment: ^86Rb^+ Efflux Assay; assay type: cell-based; conditions: CHO-DHFR- cells stably expressing hROMK1 (Kir1.1)
hROMK (hKir1.1) = hROMK (hKir1.1) (Homo sapiens (Human), UniProt P48048); experiment: Thallium Flux Assay; assay type: cell-based; conditions: Table 2; HEK293 cells stably expressing hROMK (hKir1.1)
[1] = value in parentheses at the end of each Example, read-out: IC50 in the ^86Rb^+ Efflux Assay
[2] = Table 1, read-out: ^86Rb^+ Efflux Assay IC50

Sequence of hROMK (hKir1.1) (P48048 whole entry): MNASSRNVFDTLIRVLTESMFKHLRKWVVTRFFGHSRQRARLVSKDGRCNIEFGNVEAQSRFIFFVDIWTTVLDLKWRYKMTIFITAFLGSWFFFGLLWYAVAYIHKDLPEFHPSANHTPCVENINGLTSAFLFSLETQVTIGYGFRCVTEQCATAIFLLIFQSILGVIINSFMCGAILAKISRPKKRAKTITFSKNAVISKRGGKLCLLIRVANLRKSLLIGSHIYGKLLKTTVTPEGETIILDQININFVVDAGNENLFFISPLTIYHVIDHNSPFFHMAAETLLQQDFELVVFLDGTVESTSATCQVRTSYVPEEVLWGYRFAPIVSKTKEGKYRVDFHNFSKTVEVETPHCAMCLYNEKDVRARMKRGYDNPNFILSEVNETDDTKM
Sequence of hROMK1 (Kir1.1) (P48048 whole entry): as above

Row | SMILES | IC50 (hROMK1 (Kir1.1); [1]) | IC50 (hROMK1 (Kir1.1); [2]) | IC50 (hROMK (hKir1.1))
1 | COc1cc(CCN2CCN(CCc3ccc4c(c3)COC4=O)CC2C(F)(F)F)ccc1C#N (stereo not drawn) [Example 56, 2-Methoxy-4-(2-{4-[2-(1-oxo-1,3-dihydro-2-benzofuran-5-yl)ethyl]-2-(trifluoromethyl)piperazin-1-yl}ethyl)benzonitrile] | 0.27 µM | 0.27 µM | –
2 | COc1cc(CCN2CCN(CCc3ccc4c(c3)CC(C)OC4=O)CC2)ccc1C#N (stereo not drawn) [Example 57, 2-Methoxy-4-(2-{4-[2-(3-methyl-1-oxo-3,4-dihydro-1H-isochromen-6-yl)ethyl]piperazin-1-yl}ethyl)benzonitrile] | 0.098 µM | 0.098 µM | –
3 | C[C@H]1Cc2cc(CCN3CCN(CCc4ccc5c(c4)C[C@H](C)OC5=O)CC3)ccc2C(=O)O1 [Example 58, (3S,3′S)-6,6′-(Piperazine-1,4-diyldiethane-2,1-diyl)bis(3-methyl-3,4-dihydro-1H-isochromen-1-one)] | 0.65 µM | – | 0.24 µM
4 | Cc1c(CCN2CCN(CCc3ccc4c(c3C)COC4=O)CC2)ccc2c1COC2=O [Example 59, 5,5′-(Piperazine-1,4-diyldiethane-2,1-diyl)bis(4-methyl-2-benzofuran-1(3H)-one)] | 0.076 µM | 0.076 µM | –
5 | COc1cc(CCN2CCN(CCc3ccc4c(c3)COC4=O)CC2)c(Cl)cc1C#N [Example 61, 5-Chloro-2-methoxy-4-(2-{4-[2-(1-oxo-1,3-dihydro-2-benzofuran-5-yl)ethyl]piperazin-1-yl}ethyl)benzonitrile] | 0.094 µM | – | –
6 | N#Cc1ccc(CCN2CCN(CCc3ccc4c(c3)COC4=O)CC2)cc1OC(F)F [Example 63, 2-(Difluoromethoxy)-4-(2-{4-[2-(1-oxo-1,3-dihydro-2-benzofuran-5-yl)ethyl]piperazin-1-yl}ethyl)benzonitrile] | 0.15 µM | – | –
7 | N#Cc1ccc2c(c1)CCC(N1CCN(CCc3ccc4c(c3)COC4=O)CC1)C2 (stereo not drawn) [Example 66, 6-{4-[2-(1-Oxo-1,3-dihydro-2-benzofuran-5-yl)ethyl]piperazin-1-yl}-5,6,7,8-tetrahydronaphthalene-2-carbonitrile] | 0.05 µM | – | –
8 | Cc1c(CCN2CCN(CCc3ccc(C#N)c(OC(F)(F)F)c3)CC2)ccc2c1COC2=O [Example 69, 2-Trifluoromethoxy-4-(2-{4-[2-(4-methyl-1-oxo-1,3-dihydro-2-benzofuran-5-yl)ethyl]piperazin-1-yl}ethyl)benzonitrile] | 0.2 µM | – | –
9 | Cc1c(CCN2CCN(CCc3ccc(C#N)c(Cl)c3)CC2)ccc2c1COC2=O [Example 71, 2-Chloro-4-(2-{4-[2-(4-methyl-1-oxo-1,3-dihydro-2-benzofuran-5-yl)ethyl]piperazin-1-yl}ethyl)benzonitrile] | 0.035 µM | – | –
10 | COc1c(C#N)ccc(CCN2CCN(CCc3ccc4c(c3)COC4=O)CC2)c1F [Example 72, 3-Fluoro-2-methoxy-4-(2-{4-[2-(1-oxo-1,3-dihydro-2-benzofuran-5-yl)ethyl]piperazin-1-yl}ethyl)benzonitrile] | 0.092 µM | – | –
11 | COc1c(C#N)ccc(CCN2CCN(CCc3ccc4c(c3C)COC4=O)CC2)c1F [Example 73, 3-Fluoro-2-methoxy-4-(2-{4-[2-(4-methyl-1-oxo-1,3-dihydro-2-benzofuran-5-yl)ethyl]piperazin-1-yl}ethyl)benzonitrile] | 0.091 µM | – | –
12 | Cc1c(CCN2CCN(CCc3ccc(C#N)c4ccccc34)CC2)ccc2c1COC2=O [Example 74, 4-(2-{4-[2-(4-Methyl-1-oxo-1,3-dihydro-2-benzofuran-5-yl)ethyl]piperazin-1-yl}ethyl)naphthalene-1-carbonitrile] | 0.16 µM | 0.16 µM | –
13 | Cc1c(CCN2CCN(CCc3c(F)cc(C#N)c(F)c3F)CC2)ccc2c1COC2=O [Example 75, 2,3,5-Trifluoro-4-(2-{4-[2-(4-methyl-1-oxo-1,3-dihydro-2-benzofuran-5-yl)ethyl]piperazin-1-yl}ethyl)benzonitrile] | 0.23 µM | – | –
14 | CCOc1cc(CCN2CCN(CCc3ccc4c(c3C)COC4=O)CC2)ccc1C#N [Example 77, 2-Ethoxy-4-(2-{4-[2-(4-methyl-1-oxo-1,3-dihydro-2-benzofuran-5-yl)ethyl]piperazin-1-yl}ethyl)benzonitrile] | 0.074 µM | – | –
15 | N#Cc1cc(Cl)c(CCN2CCN(CCc3ccc4c(c3)COC4=O)CC2)cc1F [Example 78, 5-Chloro-2-fluoro-4-(2-{4-[2-(1-oxo-1,3-dihydro-2-benzofuran-5-yl)ethyl]piperazin-1-yl}ethyl)benzonitrile] | 0.076 µM | – | –
16 | Cc1c(CCN2CCN(CCc3cc(F)c(C#N)cc3Cl)CC2)ccc2c1COC2=O [Example 79, 5-Chloro-2-fluoro-4-(2-{4-[2-(4-methyl-1-oxo-1,3-dihydro-2-benzofuran-5-yl)ethyl]piperazin-1-yl}ethyl)benzonitrile] | 0.048 µM | – | –
17 | COc1cc(CCN2CCN(CCc3ccc4c(c3C)COC4=O)CC2)c(Cl)cc1C#N [Example 80, 5-Chloro-2-methoxy-4-(2-{4-[2-(4-methyl-1-oxo-1,3-dihydro-2-benzofuran-5-yl)ethyl]piperazin-1-yl}ethyl)benzonitrile] | 0.071 µM | – | –
18 | Cc1c(CCN2CCN(CCc3ccc4c(c3)COC4=O)CC2)ccc(C#N)c1F [Example 81, 2-Fluoro-3-methyl-4-(2-{4-[2-(1-oxo-1,3-dihydro-2-benzofuran-5-yl)ethyl]piperazin-1-yl}ethyl)benzonitrile] | 0.08 µM | – | –
19 | Cc1c(CCN2CCN(CCc3ccc4c(c3C)COC4=O)CC2)ccc(C#N)c1F [Example 82, 2-Fluoro-3-methyl-4-(2-{4-[2-(4-methyl-1-oxo-1,3-dihydro-2-benzofuran-5-yl)ethyl]piperazin-1-yl}ethyl)benzonitrile] | 0.063 µM | – | –
20 | COc1c(C#N)ccc(CCN2CCN(CCc3ccc4c(c3)COC4=O)CC2)c1C [Example 83, 2-Methoxy-3-methyl-4-(2-{4-[2-(1-oxo-1,3-dihydro-2-benzofuran-5-yl)ethyl]piperazin-1-yl}ethyl)benzonitrile] | 0.18 µM | – | –
21 | COc1c(C#N)ccc(CCN2CCN(CCc3ccc4c(c3C)COC4=O)CC2)c1C [Example 84, 2-Methoxy-3-methyl-4-(2-{4-[2-(4-methyl-1-oxo-1,3-dihydro-2-benzofuran-5-yl)ethyl]piperazin-1-yl}ethyl)benzonitrile] | 0.078 µM | – | –
22 | N#Cc1ccc(CCN2CCN(CCc3ccc4c(c3)COC4=O)CC2)c(Cl)c1F [Example 85, 3-Chloro-2-fluoro-4-(2-{4-[2-(1-oxo-1,3-dihydro-2-benzofuran-5-yl)ethyl]piperazin-1-yl}ethyl)benzonitrile] | 0.13 µM | – | –
23 | Cc1c(CCN2CCN(CCc3ccc(C#N)c(F)c3Cl)CC2)ccc2c1COC2=O [Example 86, 3-Chloro-2-fluoro-4-(2-{4-[2-(4-methyl-1-oxo-1,3-dihydro-2-benzofuran-5-yl)ethyl]piperazin-1-yl}ethyl)benzonitrile] | 0.078 µM | – | 0.017 µM
24 | COc1c(C#N)ccc(CCN2CCN(CCc3ccc4c(c3)COC4=O)CC2)c1Cl [Example 87, 3-Chloro-2-methoxy-4-(2-{4-[2-(1-oxo-1,3-dihydro-2-benzofuran-5-yl)ethyl]piperazin-1-yl}ethyl)benzonitrile] | 0.16 µM | – | –
25 | COc1c(C#N)ccc(CCN2CCN(CCc3ccc4c(c3C)COC4=O)CC2)c1Cl [Example 88, 3-Chloro-2-methoxy-4-(2-{4-[2-(4-methyl-1-oxo-1,3-dihydro-2-benzofuran-5-yl)ethyl]piperazin-1-yl}ethyl)benzonitrile] | 0.083 µM | – | –
26 | Cc1c(CCN2CCN(CC3CCOc4cc(C#N)ccc43)CC2)ccc2c1COC2=O (stereo not drawn) [Example 91, 4-({4-[2-(4-Methyl-1-oxo-1,3-dihydro-2-benzofuran-5-yl)ethyl]piperazin-1-yl}methyl)-3,4-dihydro-2H-chromene-7-carbonitrile] | 0.18 µM | – | –
27 | Cc1c(C(C)CN2CCN(CC(C)c3ccc4c(c3C)COC4=O)CC2)ccc2c1COC2=O (stereo not drawn) [Example 93] | 0.22 µM | – | –
28 | Cc1c(CCN2CCN(CC(C)c3ccc4c(c3C)COC4=O)CC2)ccc2c1COC2=O (stereo not drawn) [Example 94, 4-Methyl-5-(1-(4-(2-(4-methyl-1-oxo-1,3-dihydroisobenzofuran-5-yl)ethyl)piperazin-1-yl)propan-2-yl)isobenzofuran-1(3H)-one] | 0.034 µM | 0.034 µM | 0.012 µM
